For 3 compounds, IC50 results are on record in ChEMBL document CHEMBL4425184, “C15-methoxyphenylated 18-deoxy-herbimycin A analogues, their in vitro anticancer activity and heat shock protein 90 binding affinity” (Bioorg Med Chem Lett, 2016).

One assay deals with BGC-823. Kind of assay: Antiproliferative activity against human BGC823 assessed as reduction in cell viability measured after 96 hrs by MTT assay. The class given is functional, cell-based. The following applies: BGC-823, 96 h.
Broadly, the IC50 is the concentration that inhibits the measured activity by half. Turning to `COc1ccc([C@H]2c3cccc(c3O)NC(=O)/C(C)=C/CC[C@H](OC)[C@@H](OC(N)=O)/C(C)=C/[C@H](C)[C@@H](OC)[C@@H](OC)C[C@@H]2C)cc1`, the IC50 is greater than 20 µM.
Regarding `COc1ccc([C@H]2c3cccc(c3O)NC(=O)/C(C)=C/CC[C@H](OC)[C@@H](OC(N)=O)/C(C)=C/[C@H](C)[C@@H](O)[C@@H](OC)C[C@@H]2C)cc1`, the IC50 was greater than 20 µM.
Still for that read-out and setting: in the case of `CO[C@H]1/C=C\C=C(/C)C(=O)NC2=CC(=O)C=C(C2=O)[C@H](OC)[C@@H](C)C[C@H](OC)[C@H](O)[C@@H](C)/C=C(\C)[C@@H]1OC(N)=O` [HERBIMYCIN C] it was 3.99 µM.

The next assay deals with A2780. The assay can be described thus: Antiproliferative activity against human A2780 assessed as reduction in cell viability measured after 96 hrs by MTT assay. The format is functional, cell-based. The following applies: A2780, 96 h. Background: Tetrazolium dyes change colour on reduction, which living cells bring about.
On to `COc1ccc([C@H]2c3cccc(c3O)NC(=O)/C(C)=C/CC[C@H](OC)[C@@H](OC(N)=O)/C(C)=C/[C@H](C)[C@@H](OC)[C@@H](OC)C[C@@H]2C)cc1`, for which the IC50 is greater than 20 µM.
For the compound `COc1ccc([C@H]2c3cccc(c3O)NC(=O)/C(C)=C/CC[C@H](OC)[C@@H](OC(N)=O)/C(C)=C/[C@H](C)[C@@H](O)[C@@H](OC)C[C@@H]2C)cc1`, the IC50 is greater than 20 µM.
As for `CO[C@H]1/C=C\C=C(/C)C(=O)NC2=CC(=O)C=C(C2=O)[C@H](OC)[C@@H](C)C[C@H](OC)[C@H](O)[C@@H](C)/C=C(\C)[C@@H]1OC(N)=O` [HERBIMYCIN C], the IC50 is 3.01 µM.

Another assay has as its system SW1990. Kind of assay: Antiproliferative activity against human SW1990 assessed as reduction in cell viability measured after 96 hrs by MTT assay. The format is functional, cell-based. The note with it: SW1990, 96 h.
On to `COc1ccc([C@H]2c3cccc(c3O)NC(=O)/C(C)=C/CC[C@H](OC)[C@@H](OC(N)=O)/C(C)=C/[C@H](C)[C@@H](OC)[C@@H](OC)C[C@@H]2C)cc1`, for which the IC50 is greater than 20 µM.
As for `COc1ccc([C@H]2c3cccc(c3O)NC(=O)/C(C)=C/CC[C@H](OC)[C@@H](OC(N)=O)/C(C)=C/[C@H](C)[C@@H](O)[C@@H](OC)C[C@@H]2C)cc1`, the IC50 was greater than 20 µM.
For the compound `CO[C@H]1/C=C\C=C(/C)C(=O)NC2=CC(=O)C=C(C2=O)[C@H](OC)[C@@H](C)C[C@H](OC)[C@H](O)[C@@H](C)/C=C(\C)[C@@H]1OC(N)=O` [HERBIMYCIN C], the IC50 is 8.62 µM.

For the next assay, the target named is T1, Heat shock protein HSP 90-alpha (Homo sapiens, UniProt P07900). The assay can be described thus: Displacement of fluorescent labelled-VER00051001 from N-terminal ATP-binding site of human recombinant HSP90A expressed in Escherichia coli measured after 32 hrs by fluorescence polarization assay.
Conditions: not given
(Polarisation of emitted light reports the rotation of a fluorescent probe.)
With `COc1ccc([C@H]2c3cccc(c3O)NC(=O)/C(C)=C/CC[C@H](OC)[C@@H](OC(N)=O)/C(C)=C/[C@H](C)[C@@H](OC)[C@@H](OC)C[C@@H]2C)cc1`, the IC50 was greater than 1 µM.
As for `COc1ccc([C@H]2c3cccc(c3O)NC(=O)/C(C)=C/CC[C@H](OC)[C@@H](OC(N)=O)/C(C)=C/[C@H](C)[C@@H](O)[C@@H](OC)C[C@@H]2C)cc1`, the IC50 was greater than 1 µM.
Consider `CO[C@H]1/C=C\C=C(/C)C(=O)NC2=CC(=O)C=C(C2=O)[C@H](OC)[C@@H](C)C[C@H](OC)[C@H](O)[C@@H](C)/C=C(\C)[C@@H]1OC(N)=O` [HERBIMYCIN C], for which the IC50 is 0.0184 µM.

The target of another assay is T1, Heat shock protein HSP 90-alpha. The assay can be described thus: Displacement of fluorescent labelled-VER00051001 from N-terminal ATP-binding site of human recombinant HSP90A expressed in Escherichia coli measured after 20 hrs by fluorescence polarization assay.
Conditions: not given
Consider `COc1ccc([C@H]2c3cccc(c3O)NC(=O)/C(C)=C/CC[C@H](OC)[C@@H](OC(N)=O)/C(C)=C/[C@H](C)[C@@H](OC)[C@@H](OC)C[C@@H]2C)cc1`, for which the IC50 is greater than 1 µM.
The same measure, in the same setting: in the case of `COc1ccc([C@H]2c3cccc(c3O)NC(=O)/C(C)=C/CC[C@H](OC)[C@@H](OC(N)=O)/C(C)=C/[C@H](C)[C@@H](O)[C@@H](OC)C[C@@H]2C)cc1` it was greater than 1 µM.
With `CO[C@H]1/C=C\C=C(/C)C(=O)NC2=CC(=O)C=C(C2=O)[C@H](OC)[C@@H](C)C[C@H](OC)[C@H](O)[C@@H](C)/C=C(\C)[C@@H]1OC(N)=O` [HERBIMYCIN C], the IC50 came out at 0.0222 µM.

The subject of a further assay is MCF7. The assay can be described thus: Antiproliferative activity against human MCF7 assessed as reduction in cell viability measured after 96 hrs by MTT assay. The format is functional, cell-based. The note with it: MCF7, 96 h.
As to `COc1ccc([C@H]2c3cccc(c3O)NC(=O)/C(C)=C/CC[C@H](OC)[C@@H](OC(N)=O)/C(C)=C/[C@H](C)[C@@H](OC)[C@@H](OC)C[C@@H]2C)cc1`, the half-inhibitory concentration (IC50) was greater than 20 µM.
Turning to `COc1ccc([C@H]2c3cccc(c3O)NC(=O)/C(C)=C/CC[C@H](OC)[C@@H](OC(N)=O)/C(C)=C/[C@H](C)[C@@H](O)[C@@H](OC)C[C@@H]2C)cc1`, the IC50 was greater than 20 µM.
Turning to `CO[C@H]1/C=C\C=C(/C)C(=O)NC2=CC(=O)C=C(C2=O)[C@H](OC)[C@@H](C)C[C@H](OC)[C@H](O)[C@@H](C)/C=C(\C)[C@@H]1OC(N)=O` [HERBIMYCIN C], the IC50 stood at 5.07 µM.

A further assay deals with A-375. The assay can be described thus: Antiproliferative activity against human A375 assessed as reduction in cell viability measured after 96 hrs by MTT assay. The following applies: A-375, 96 h. The format is functional, cell-based.
For `COc1ccc([C@H]2c3cccc(c3O)NC(=O)/C(C)=C/CC[C@H](OC)[C@@H](OC(N)=O)/C(C)=C/[C@H](C)[C@@H](OC)[C@@H](OC)C[C@@H]2C)cc1`, the IC50 is greater than 20 µM.
With `COc1ccc([C@H]2c3cccc(c3O)NC(=O)/C(C)=C/CC[C@H](OC)[C@@H](OC(N)=O)/C(C)=C/[C@H](C)[C@@H](O)[C@@H](OC)C[C@@H]2C)cc1`, the IC50 is greater than 20 µM.
Consider `CO[C@H]1/C=C\C=C(/C)C(=O)NC2=CC(=O)C=C(C2=O)[C@H](OC)[C@@H](C)C[C@H](OC)[C@H](O)[C@@H](C)/C=C(\C)[C@@H]1OC(N)=O` [HERBIMYCIN C], for which the IC50 came to 2.43 µM.

The subject of the next assay is HCT-116. Kind of assay: Antiproliferative activity against human HCT116 assessed as reduction in cell viability measured after 96 hrs by MTT assay. The format is functional, cell-based. The note with it: HCT-116, 96 h.
Regarding `COc1ccc([C@H]2c3cccc(c3O)NC(=O)/C(C)=C/CC[C@H](OC)[C@@H](OC(N)=O)/C(C)=C/[C@H](C)[C@@H](OC)[C@@H](OC)C[C@@H]2C)cc1`, the IC50 is greater than 20 µM.
Regarding `COc1ccc([C@H]2c3cccc(c3O)NC(=O)/C(C)=C/CC[C@H](OC)[C@@H](OC(N)=O)/C(C)=C/[C@H](C)[C@@H](O)[C@@H](OC)C[C@@H]2C)cc1`, the IC50 was greater than 20 µM.
With `CO[C@H]1/C=C\C=C(/C)C(=O)NC2=CC(=O)C=C(C2=O)[C@H](OC)[C@@H](C)C[C@H](OC)[C@H](O)[C@@H](C)/C=C(\C)[C@@H]1OC(N)=O` [HERBIMYCIN C], the IC50 amounted to 9.39 µM.

A further assay addresses T1, Heat shock protein HSP 90-alpha. Kind of assay: Displacement of fluorescent labelled-VER00051001 from N-terminal ATP-binding site of human recombinant HSP90A expressed in Escherichia coli measured after 48 hrs by fluorescence polarization assay.
Conditions: not given
Turning to `COc1ccc([C@H]2c3cccc(c3O)NC(=O)/C(C)=C/CC[C@H](OC)[C@@H](OC(N)=O)/C(C)=C/[C@H](C)[C@@H](OC)[C@@H](OC)C[C@@H]2C)cc1`, the IC50 is greater than 1 µM.
For `COc1ccc([C@H]2c3cccc(c3O)NC(=O)/C(C)=C/CC[C@H](OC)[C@@H](OC(N)=O)/C(C)=C/[C@H](C)[C@@H](O)[C@@H](OC)C[C@@H]2C)cc1`, the IC50 was greater than 1 µM.
Regarding `CO[C@H]1/C=C\C=C(/C)C(=O)NC2=CC(=O)C=C(C2=O)[C@H](OC)[C@@H](C)C[C@H](OC)[C@H](O)[C@@H](C)/C=C(\C)[C@@H]1OC(N)=O` [HERBIMYCIN C], the IC50 was found to be 0.0168 µM.

Another assay shares this target. The assay can be described thus: Displacement of fluorescent labelled-VER00051001 from N-terminal ATP-binding site of human recombinant HSP90A expressed in Escherichia coli measured after 44 hrs by fluorescence polarization assay.
Conditions: not given
As for `COc1ccc([C@H]2c3cccc(c3O)NC(=O)/C(C)=C/CC[C@H](OC)[C@@H](OC(N)=O)/C(C)=C/[C@H](C)[C@@H](OC)[C@@H](OC)C[C@@H]2C)cc1`, the IC50 is greater than 1 µM.
Still for that read-out and setting: in the case of `COc1ccc([C@H]2c3cccc(c3O)NC(=O)/C(C)=C/CC[C@H](OC)[C@@H](OC(N)=O)/C(C)=C/[C@H](C)[C@@H](O)[C@@H](OC)C[C@@H]2C)cc1` it was greater than 1 µM; in that of `CO[C@H]1/C=C\C=C(/C)C(=O)NC2=CC(=O)C=C(C2=O)[C@H](OC)[C@@H](C)C[C@H](OC)[C@H](O)[C@@H](C)/C=C(\C)[C@@H]1OC(N)=O` [HERBIMYCIN C], 0.0181 µM.

A further assay has the same target. Kind of assay: Displacement of fluorescent labelled-VER00051001 from N-terminal ATP-binding site of human recombinant HSP90A expressed in Escherichia coli measured after 29 hrs by fluorescence polarization assay.
Conditions: not given
On to `COc1ccc([C@H]2c3cccc(c3O)NC(=O)/C(C)=C/CC[C@H](OC)[C@@H](OC(N)=O)/C(C)=C/[C@H](C)[C@@H](OC)[C@@H](OC)C[C@@H]2C)cc1`, for which the IC50 was greater than 1 µM.
For the compound `COc1ccc([C@H]2c3cccc(c3O)NC(=O)/C(C)=C/CC[C@H](OC)[C@@H](OC(N)=O)/C(C)=C/[C@H](C)[C@@H](O)[C@@H](OC)C[C@@H]2C)cc1`, the IC50 was greater than 1 µM.
`CO[C@H]1/C=C\C=C(/C)C(=O)NC2=CC(=O)C=C(C2=O)[C@H](OC)[C@@H](C)C[C@H](OC)[C@H](O)[C@@H](C)/C=C(\C)[C@@H]1OC(N)=O` [HERBIMYCIN C]: the IC50 stood at 0.0197 µM.
